Structures can show the parent of a compound that is named as a salt.

In test [1] the test system is Reperfusion-induced arrhythmia. In words: Reperfusion-induced arrhythmia (ventricular tachycardia and fibrillation, survival) in anaesthetized rats. It is filed as in vivo, rat. Particulars: 1 mg/kg i.v., 5 minutes before compressing the left-sided descending coronary artery; first 3 minutes of reperfusion. The procedure: The Reperfusion-induced arrhythmia [ventricular tachycardia (VI) and ventricular fibrillation (VF)] was studied on anaesthetized rats. Myocardial ischemia was elicited by compressing the left-sided descending coronary artery for 5 minutes and after the ceasing thereof, by a 10-minute reperfusion of the heart. ECG was continuously monitored, and the change of the mean duration of VT and VF under effect of the test compounds, as well as the survival, were measured in the first 3 minutes of reperfusion. The test compounds were administered in an intravenous (i.v.) dose of 1 mg/kg by 5 minutes before compressing the left-sided descending coronary artery.

The test system of test [2] is thoracal aorta isolated from rabbit. Briefly: Vasorelaxant effect in vitro on isolated thoracal aorta. Particulars: Oryctolagus cuniculus. From the text:
The vasorelaxant effect of the compounds was investigated in vitro on the thoracal aorta isolated from rabbit [Am. J. Physiol. 257, 1327-1333 (1989)].

The next test relates to sciatic and tibial nerve. Briefly: Motor and sensory impulse conduction rate of nerves in STZ-induced diabetic rats (diabetic angiopathy complications). Particulars: for MCR correction (%): motor conduction rate; for SCR correction (%): sensory conduction rate. It is filed as in vivo, male Cr:Wistar rats. The method, then:
Furthermore, the effect of the compounds of the invention in the treatment of complications associated with the diabetic angiopathy was studied. The in vivo action was measured on rats, by the change of rate of the impulse conduction in an STZ-induced diabetic state as follows.
The electrophysiological measurements were carried out on anaesthetized male Cr:Wistar rats at the end of a one-month period of treatment with 20 mg/kg administered orally (p.o.). The sciatic or tibial nerve, respectively, was excited by needle electrodes stitched near the nerve on the lower extremity and the electromyographic (EMG) responses of the plantar muscle were registered. Five EMG-s each were averaged and the results were stored in a computer. The latency periods of the motor and sensory components were measured. The rates of impulse conduction were calculated from the ratio of the distance between two sites of excitation to the differences of latency.

[3] abbreviates: 20 mg/kg p.o., one-month treatment.

Consider `ClC(=NOCCCN1CCCCC1)c1cccnc1` [Example 2, N-(3-piperidinopropoxy)-3-pyridinecarboximodyl chloride dihydrochloride], for which the “survival of experimental animals” value in test [1] is recorded as 100%. For the same molecule, the EC50 in test [2] is 27 µM. For the same molecule, in the test on sciatic and tibial nerve (setting [3]), the “MCR correction (%)” value came to 100% and the “SCR correction (%)” value was 100%.

With `CCN(CC)CCCON=C(Cl)c1cccnc1` [Example 4, O-(3-diethylaminopropyl)-3-pyridinehydroximoyl chloride hydrochloride], a half-maximal response in test [2] (EC50) required 82 µM.

In turn, `ClC(=NOCCCN1CCOCC1)c1cccnc1` [Example 5, O-(3-morpholinopropyl)-3-pyridinehydroximoyl chloride dihydrochloride] returned an EC50 in test [2] of 24 µM.

Turning to `ClC(=NOCCN1CCCCC1)c1cccnc1` [Example 6, O-(2-piperidinoethyl)-3-pyridinehydroximoyl chloride hydrochloride], the half-maximal effective concentration (EC50) in test [2] was determined as 13 µM.

In the case of `Cl.O=[N+]([O-])c1cccc(C(Cl)=NOCCCN2CCCCC2)c1` [Example 7, O-(3-piperidinopropyl)-3-nitro-benzhydroximoyl chloride hydrochloride], the “survival of experimental animals” value in test [1] stood at 100%. Moreover, the half-maximal effective concentration (EC50) in test [2] was 6 µM. Also, in the test on sciatic and tibial nerve (setting [3]), the “MCR correction (%)” value is recorded as 48% and the “SCR correction (%)” value is listed as 64%.

The molecule `FC(F)(F)c1cccc(C(Cl)=NOCCCN2CCCCC2)c1` [Example 8, N-[3-(1-piperidinyl)propoxy]-3'-(trifluoromethyl)benzimidoylchloride hydrochloride] yielded an EC50 in test [2] of 15 µM.

In turn, `CN1CCN(CCCON=C(Cl)c2cccnc2)CC1` [Example 9, N-[3-(4-methylpiperazin-1-yl)-1-propoxy]-3-pyridinecarboximidoyl chloride trihydrochloride] gave an EC50 in test [2] of 76 µM.

`CC(C)COCC(CN(Cc1ccccc1)c1ccccc1)N1CCCC1` (stereo not shown) [Ref, Bepridil, reference compound] returned a 50% effective concentration (EC50) in test [2] of 83 µM.

Turning to `N=C(N)NN` [Reference drug, aminoguanidine, reference compound], in the test with sciatic and tibial nerve (50 mg/kg of aminoguanidine), the “MCR correction (%)” value was determined as 40% and the “SCR correction (%)” value amounted to 45%.
